For orientation: IC50 means the concentration needed to halve the response being measured.

Each structure is given as a SMILES string.

Chain of JAK1 (P23458 whole entry): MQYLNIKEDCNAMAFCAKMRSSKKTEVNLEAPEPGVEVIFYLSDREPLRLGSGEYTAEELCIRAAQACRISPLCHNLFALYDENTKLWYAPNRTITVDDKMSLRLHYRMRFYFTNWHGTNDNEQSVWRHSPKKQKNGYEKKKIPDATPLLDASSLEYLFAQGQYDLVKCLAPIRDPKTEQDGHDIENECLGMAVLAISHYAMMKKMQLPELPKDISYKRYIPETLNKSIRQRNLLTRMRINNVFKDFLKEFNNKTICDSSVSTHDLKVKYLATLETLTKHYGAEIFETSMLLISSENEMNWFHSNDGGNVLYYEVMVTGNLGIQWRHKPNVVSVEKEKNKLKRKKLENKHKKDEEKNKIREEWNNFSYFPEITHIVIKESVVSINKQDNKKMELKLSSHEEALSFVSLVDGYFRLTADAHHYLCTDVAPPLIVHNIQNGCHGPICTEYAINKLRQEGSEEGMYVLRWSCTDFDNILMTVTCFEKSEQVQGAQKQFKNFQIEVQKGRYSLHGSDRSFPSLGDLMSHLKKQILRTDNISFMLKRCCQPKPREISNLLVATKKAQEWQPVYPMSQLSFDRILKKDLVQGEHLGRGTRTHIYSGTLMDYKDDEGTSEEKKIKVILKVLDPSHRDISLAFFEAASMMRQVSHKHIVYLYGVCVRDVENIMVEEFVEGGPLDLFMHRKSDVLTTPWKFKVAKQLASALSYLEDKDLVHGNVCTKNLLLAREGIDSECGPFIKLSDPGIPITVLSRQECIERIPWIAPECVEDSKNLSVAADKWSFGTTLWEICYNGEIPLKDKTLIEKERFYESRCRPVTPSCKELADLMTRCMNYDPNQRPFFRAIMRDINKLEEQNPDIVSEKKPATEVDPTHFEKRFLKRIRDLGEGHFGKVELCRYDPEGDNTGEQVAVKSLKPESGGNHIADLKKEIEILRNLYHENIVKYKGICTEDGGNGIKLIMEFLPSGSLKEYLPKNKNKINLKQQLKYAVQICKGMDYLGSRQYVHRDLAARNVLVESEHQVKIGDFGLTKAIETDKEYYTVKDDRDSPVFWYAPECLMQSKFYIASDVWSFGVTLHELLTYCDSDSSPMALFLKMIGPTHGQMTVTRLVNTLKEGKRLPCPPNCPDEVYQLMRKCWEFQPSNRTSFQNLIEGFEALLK

The assay addresses JAK1 (Homo sapiens (Human), UniProt P23458). In words: Analysis of JAK1 activity inhibition ability (ADP-Glo Kinase Assay). The format is biochemical. To be noted: JAK1 enzyme, ADP-Glo luminescence, ATP 250 uM, IRS-itide substrate, 30° C. 40 minutes; read-out: IC50. Put shortly:
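ADP-Glo luminescence read-out of ADP production, with IC50 taken as the concentration halving JAK1 activity relative to control. Enzyme was incubated 40 min at 30 °C with compound, IRS-itide (40 ng/mL) and ATP (250 uM), concentrations as prepared in pH 7.5 Tris-HCl/MgCl2/BSA/DTT buffer.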
(ADP-Glo turns the ADP formed in a reaction into a luminescent signal.)
Consider `CS(=O)(=O)N1CCN(C(=O)Cc2ccc(-c3cc(NC(=O)C4CC4)nc4[nH]ccc34)cc2)CC1` [Example 542, N-(4-(4-(2-(4-(methylsulfonyl)piperazin-1-yl)-2-oxoethyl)phenyl)-1H-pyrrolo[2,3-b]pyridin-6-yl)cyclopropanecarboxamide], for which the half-maximal inhibitory concentration (IC50) is < 20 nM. The value for `CCCS(=O)(=O)N1CCN(c2nc(NC(=O)C3CC3)nc3[nH]ccc23)CC1` [Example 668, N-(4-(4-(propylsulfonyl)piperazin-1-yl)-7H-pyrrolo[2,3-d]pyrimidin-2-yl)cyclopropanecarboxamide] was > 200 nM; that for `CCc1cc(-c2cc(NC(=O)C3CC3)nc3[nH]ccc23)ccc1NS(=O)(=O)CC1(C#N)CC1` [Example 123, N-(4-(4-(((1-cyanocyclopropyl)methyl)sulfonamido)-3-ethylphenyl)-1H-pyrrolo[2,3-b]pyridin-6-yl)cyclopropanecarboxamide] was < 20 nM; that for `O=C(Nc1cc(C2=CC3CCCC(C2)N3C(=O)c2ccnc(Cl)c2)c2cc[nH]c2n1)C1CC1` (stereo not shown) [Example 367, N-(4-(9-(2-chloroisonicotinoyl)-9-azabicyclo[3.3.1]non-2-en-3-yl)-1H-pyrrolo[2,3-b]pyridin-6-yl)cyclopropanecarboxamide] was 20 to 200 nM. For `C[C@H]1CC(Nc2ccc(-c3cc(NC(=O)C4CC4)nc4[nH]ccc34)cc2)CCN1C(=O)Nc1ccc(F)cc1F` (stereo partly drawn) [Example 506, (2S)-4-((4-(6-(cyclopropanecarboxamido)-1H-pyrrolo[2,3-b]pyridin-4-yl)phenyl)amino)-N-(2,4-difluorophenyl)-2-methylpiperidine-1-carboxamide], the IC50 was 20 to 200 nM. The value for `O=C(Nc1cc(C2=CCN(C(=O)c3ccno3)CC2)c2cc[nH]c2n1)C1CC1` [Example 288, N-(4-(1-(isoxazole-5-carbonyl)-1,2,3,6-tetrahydropyridin-4-yl)-1H-pyrrolo[2,3-b]pyridin-6-yl)cyclopropanecarboxamide] was 20 to 200 nM; that for `O=C(Nc1cc(C2=CCN(C(=O)Cc3ccc(F)c(F)c3)CC2)c2cc[nH]c2n1)C1CC1` [Example 276, N-(4-(1-(2-(3,4-difluorophenyl)acetyl)-1,2,3,6-tetrahydropyridin-4-yl)-1H-pyrrolo[2,3-b]pyridin-6-yl)cyclopropanecarboxamide] was 20 to 200 nM; that for `N#CC1COCCN1C(=O)Cc1ccc(-c2cc(NC(=O)C3CC3)nc3[nH]ccc23)cc1` (stereo not shown) [Example 576, N-(4-(4-(2-(3-cyanomorpholino)-2-oxoethyl)phenyl)-1H-pyrrolo[2,3-b]pyridin-6-yl)cyclopropanecarboxamide] was 20 to 200 nM. The value for `CCCCNC(=O)Nc1ccc(-c2nc(NC(=O)C3CC3)nc3[nH]ccc23)cc1` [Example 439, N-(4-(4-(3-butylureido)phenyl)-7H-pyrrolo[2,3-d]pyrimidin-2-yl)cyclopropanecarboxamide] was 20 to 200 nM; that for `CC1CN(C(=O)c2ccncc2Cl)CC=C1c1cc(NC(=O)C2CC2)nc2[nH]ccc12` (stereo not shown) [Example 376, N-(4-(1-(3-chloroisonicotinoyl)-3-methyl-1,2,3,6-tetrahydropyridin-4-yl)-1H-pyrrolo[2,3-b]pyridin-6-yl)cyclopropanecarboxamide] was 20 to 200 nM; that for `CCCS(=O)(=O)Oc1ccc(-c2cc(NC(=O)C3CC3)nc3[nH]ccc23)cc1` [Example 631, 4-(6-(cyclopropanecarboxamido)-1H-pyrrolo[2,3-b]pyridin-4-yl)phenyl propane-1-sulfonate] was 20 to 200 nM. The value for `CC1CN(C(=O)c2ccc(F)cc2Cl)CC=C1c1cc(NC(=O)C2CC2)nc2[nH]ccc12` (stereo not shown) [Example 355, N-(4-(1-(2-chloro-4-fluorobenzoyl)-3-methyl-1,2,3,6-tetrahydropyridin-4-yl)-1H-pyrrolo[2,3-b]pyridin-6-yl)cyclopropanecarboxamide] was 20 to 200 nM.

Consider `O=C(Nc1cc(C2=CC3CCC(C2)N3C(=O)CCC(F)(F)F)c2cc[nH]c2n1)C1CC1` (stereo not shown) [Example 258, N-(4-(8-(4,4,4-trifluorobutanoyl)-8-azabicyclo[3.2.1]oct-2-en-3-yl)-1H-pyrrolo[2,3-b]pyridin-6-yl)cyclopropanecarboxamide], for which the IC50 is < 20 nM.

Consider `CC1CN(C(=O)c2ccnc(Cl)c2)CC=C1c1cc(NC(=O)C2CC2)nc2[nH]ccc12` (stereo not shown) [Example 310, N-(4-(1-(2-chloroisonicotinoyl)-3-methyl-1,2,3,6-tetrahydropyridin-4-yl)-1H-pyrrolo[2,3-b]pyridin-6-yl)cyclopropanecarboxamide], for which the IC50 was < 20 nM. The value for `O=C(Nc1cc(-c2cnn(C3CN(S(=O)(=O)c4ccc(F)c(F)c4)C3)c2)c2cc[nH]c2n1)C1CC1` [Example 605, N-(4-(1-(1-((3,4-difluorophenyl)sulfonyl)azetidin-3-yl)-1H-pyrazol-4-yl)-1H-pyrrolo[2,3-b]pyridin-6-yl)cyclopropanecarboxamide] was 20 to 200 nM; that for `CC(C)S(=O)(=O)Nc1ccc(-c2cc(NC(=O)C3CC3)nc3[nH]ccc23)cc1` [Example 41, N-(4-(4-((1-methylethyl)sulfonamido)phenyl)-1H-pyrrolo[2,3-b]pyridin-6-yl)cyclopropanecarboxamide] was < 20 nM. The value for `O=C(Nc1cc(-c2ccc(NS(=O)(=O)C3CCC3)cc2C(F)(F)F)c2cc[nH]c2n1)C1CC1` [Example 120, N-(4-(4-(cyclobutanesulfonamido)-2-(trifluoromethyl)phenyl)-1H-pyrrolo[2,3-b]pyridin-6-yl)cyclopropanecarboxamide] was 20 to 200 nM; that for `O=C(Nc1cc(C2CC3CCC(C2)N3C(=O)C2CC2)c2cc[nH]c2n1)C1CC1` (stereo not shown) [Example 650, N-(4-(8-(cyclopropanecarbonyl)-8-azabicyclo[3.2.1]octan-3-yl)-1H-pyrrolo[2,3-b]pyridin-6-yl)cyclopropanecarboxamide] was > 200 nM. The figure for `Cc1ncc(C(=O)N2CC=C(c3cc(NC(=O)C4CC4)nc4[nH]ccc34)C(C)C2)s1` (stereo not shown) [Example 306, N-(4-(3-methyl-1-(2-methylthiazole-5-carbonyl)-1,2,3,6-tetrahydropyridin-4-yl)-1H-pyrrolo[2,3-b]pyridin-6-yl)cyclopropanecarboxamide] is 20 to 200 nM; for `N#CCC1(N2CC=C(c3cc(NC(=O)C4CC4)nc4[nH]ccc34)CC2)CN(C2CCNCC2)C1` [Example 620, N-(4-(1-(3-(cyanomethyl)-1-(piperidin-4-yl)azetidin-3-yl)-1,2,3,6-tetrahydropyridin-4-yl)-1H-pyrrolo[2,3-b]pyridin-6-yl)cyclopropanecarboxamide] it is > 200 nM; for `CCCS(=O)(=O)NCc1ccc(-c2cc(NC(=O)C3CC3)nc3[nH]ccc23)cc1` [Example 583, N-(4-(4-(propylsulfonamidomethyl)phenyl)-1H-pyrrolo[2,3-b]pyridin-6-yl)cyclopropanecarboxamide] it is 20 to 200 nM. `CCC1CC(c2cc(NC(=O)C3CC3)nc3[nH]ccc23)=CCN1C(=O)CC#N` (stereo in doubt) [Example 417, (R)—N-(4-(1-(2-cyanoacetyl)-2-ethyl-1,2,3,6-tetrahydropyridin-4-yl)-1H-pyrrolo[2,3-b]pyridin-6-yl)cyclopropanecarboxamide]: the IC50 is < 20 nM.

These data come from patent US11524968B2, “Heterocyclic compound as a protein kinase inhibitor” (HK inno.N Corporation, priority 2017, dated 2022).
